Patent publication EP0013144A1, “Substituted diphenylamine derivatives, compositions and herbicidal uses thereof, and processes for their preparation” (ICI AUSTRALIA LIMITED, priority 1978, dated 1980)

Experiments:
Type in all cases: in vivo
[1] = test system: Rape; assay: Post-emergence herbicidal test, young pot plants (Example 33); settings: 2.0 kg/ha, after 14 days
Method: (§1) The compounds were formulated for test by mixing an appropriate amount with 5 ml of an emulsion prepared by diluting 160 ml of a solution containing 21.S g per litre of "Span" 80 and 78.2 g per litre of "Tween" 20 in methylcyclohexanone to 500 ml with water. "Span" 80 is a Trade Mark for a surface-active agent comprising sorbitan monolaurate. "Tween" 20 is a Trade Mark for a surface-active agent comprising a condensate of sorbitan monolaurate with 20 molar proportions of ethylene oxide. Each 5 ml emulsion containing a test compound was'then diluted to 40 ml with water and sprayed on to young pot plants (post-emergence test) of the species named in Table 5 below. Damage to test plants was assessed after 14 days on a scale of 0 to 5 where 0 is 0 to 20% damage and 5 is complete kill. In a test for pre-emergence herbicidal activity, seeds of the test plants were sown in a shallow slit formed in the surface of soil in fibre trays. The surface was then levelled and sprayed, and fresh soil then spread thinly over the sprayed surface. Assessment of herbicidal damage was carried out after 21 days using the same scale of 0 to 5 as the post-emergence test. In both cases the degree of herbicidal damage was assessed by comparison with untreated control plants. A dash (-) means that no experiment was carried out.

[2] = test system: Chenopodium album; assay: as above; settings: 2.0 kg/ha, after 14 days
Method: as §1

[3] = test system: Amaranthus retroflexus; assay: as above; settings: 2.0 kg/ha, after 14 days
Method: as §1

[4] = test system: Senecio vulgaris; assay: as above; settings: 2.0 kg/ha, after 14 days
Method: as §1

[5] = test system: Sugar beet; assay: as above; settings: 2.0 kg/ha, after 14 days
Method: as §1

[6] = test system: Cotton; assay: as above; settings: 2.0 kg/ha, after 14 days
Method: as §1

[7] = test system: Soy bean; assay: as above; settings: 2.0 kg/ha, after 14 days
Method: as §1

[8] = test system: Ipomea purpurea; assay: as above; settings: 2.0 kg/ha, after 14 days
Method: as §1

[9] = test system: Polygonum aviculare; assay: as above; settings: 2.0 kg/ha, after 14 days
Method: as §1

[10] = test system: Japanese millet; assay: Post-emergence herbicidal activity (Example 32); settings: 3 weeks after spraying
Method: (§2) Concentrated formulations of the compounds of the invention were prepared by: • a) in the case of oils and waxy solids, dissolving the compound in toluene containing 7% v/v "Teric" N13 ("Teric" is a Trade MarK and "Teric" N13, a product of ethoxylation of nonylphenol, is available from ICI Australia Limited) and 3% v/v "Kemmat" SC15B ("Kemmat" is a Trade Mark and "Kemmat" SC15B is a formulation of calcium dodecylbenzene sulfonate); or • b) in the case of crystalline solids, adding 5 parts by weight of the compound and 1 part by weight of . ''Dyapol" PT ("Dyapol" is a Trade Mark and "Dyapol" PT is an anionic suspending agent) to 94 parts by weight of an aqueous solution containing 0.25% v/v of "Teric" N8 (a product of ethoxylation of nonylphenol) and ball-milling the mixture to produce a stable suspension. The emulsifiable concentrates and suspensions were then diluted with water to give an aqueous composition of the required concentration suitable for use in the evaluation of the pre-emergence and post-emergence herbicidal activity of the compounds of the invention.
(§3) The post-emergent herbicidal activity of the compounds of the invention formulated as described in Example 30 was assessed by the following procedure.
(§4) The seeds of the test species were sown in rows 2 cm deep in soil contained in seed boxes. The monocotyledonous plants and the dicotyledonous plants were sown in separate seed boxes in duplicate. The four seed boxes were placed in a glasshouse, lightly watered with an overhead spray to initiate germination and then sub-irrigated as required for optimum plant growth. After the plants had grown to a height of about 10 to 12.5 cm one box of each of the monocotyledonous plants and the dicotyledonous plants was removed from the glasshouse and sprayed with the required quantity of a composition of the invention. After spraying the boxes were returned to the glasshouse for further 3 weeks and the effects of the treatment was visually assessed by comparison with the untreated controls. The results are presented in Table 4 where the damage to plants is rated on a scale of from 0 to 3 where 0 represents 0 to 25% damage, 3 represents 75 to 99% kill and 3+ represents 100% kill. A dash (-) means that no experiment was carried out.

[11] = test system: Sunflower; assay: Post-emergence herbicidal activity (Example 32); settings: 3 weeks after spraying
Method: as §2, §3, §4

[12] = test system: Mustard; assay: Post-emergence herbicidal activity (Example 32); settings: 1 kg/ha, 3 weeks after spraying
Method: as §2, §3, §4

[13] = test system: Ryegrass; assay: Post-emergence herbicidal activity (Example 32); settings: 3 weeks after spraying
Method: as §2, §3, §4

[14] = test system: Wild Oats; assay: Post-emergence herbicidal activity (Example 32); settings: 10 kg/ha, 3 weeks after spraying
Method: as §2, §3, §4

[15] = test system: Maize; assay: Pre-emergence herbicidal test, fibre trays (Example 33); parameters: key: 0 = 0-20% damage, 5 = complete kill, vs untreated control; settings: 2.0 kg/ha, after 21 days
Method: as §1

[16] = test system: Winter wheat; assay: Post-emergence herbicidal test, young pot plants (Example 33); parameters: key: 0 = 0-20% damage, 5 = complete kill, vs untreated control; settings: 2.0 kg/ha, after 14 days
Method: as §1

[17] = test system: Rice; assay: as above; settings: 2.0 kg/ha, after 14 days
Method: as §1

[18] = test system: Maize; assay: as above; settings: 2.0 kg/ha, after 14 days
Method: as §1

[19] = test system: Rice; assay: Pre-emergence herbicidal test, fibre trays (Example 33); settings: 2.0 kg/ha, after 21 days
Method: as §1

[20] = test system: Rape; assay: as above; settings: 2.0 kg/ha, after 21 days
Method: as §1

[21] = test system: Winter wheat; assay: as above; settings: 2.0 kg/ha, after 21 days
Method: as §1

[22] = test system: Senecio vulgaris; assay: as above; settings: 2.0 kg/ha, after 21 days
Method: as §1

[23] = test system: Sugar beet; assay: as above; settings: 2.0 kg/ha, after 21 days
Method: as §1

[24] = test system: Cotton; assay: as above; settings: 2.0 kg/ha, after 21 days
Method: as §1

[25] = test system: Soy bean; assay: as above; settings: 2.0 kg/ha, after 21 days
Method: as §1

[26] = test system: Ipomea purpurea; assay: as above; settings: 2.0 kg/ha, after 21 days
Method: as §1

[27] = test system: Ryegrass; assay: Pre-emergence herbicidal activity (Example 31); parameters: key: 0-3 scale: 0 = 0-25% damage, 3 = 75-99% kill, 3+ = 100% kill; settings: 10 kg/ha, after three weeks
Method: as §2
(§5) The pre-emergent herbicidal activity of the compounds of the invention formulated as described in Example 30 was assessed by the following procedure.
(§6) The seeds of the test species were sown in rows 2 cm deep in soil contained in seed boxes. The monocotyledonous plants and the dicotyledonous plants were sprayed with the required quantity of a composition of the invention. Two duplicate seed Doxes were prepared in the same manner but were not sprayed with a composition of the invention and were used for comparison purposes. All the boxes were placed in a glasshouse, lightly watered with an overhead spray to initiate germination and then sub-irrigated as required for optimum plant growth. After three weeks the boxes were removed from the glasshouse and the effect of the treatment was visually assessed. The results are presented in Table 3 where the damage to plants is rated on a scale of from 0 to 3 where 0 represents from 0 to 25% damage, 3 represents 75 to 99% kill and 3+ represents 100% kill.
(§7) A dash (-) means that no experiment was carried out.

[28] = test system: Wheat; assay: Pre-emergence herbicidal activity (Example 31); parameters: key: 0-3 scale: 0 = 0-25% damage, 3 = 75-99% kill, 3+ = 100% kill; settings: 10 kg/ha, after three weeks
Method: as §2, §5, §6, §7

[29] = test system: Japanese millet; assay: Pre-emergence herbicidal activity (Example 31); settings: 10 kg/ha, after three weeks
Method: as §2, §5, §6, §7

[30] = test system: Sunflower; assay: Pre-emergence herbicidal activity (Example 31); settings: 10 kg/ha, after three weeks
Method: as §2, §5, §6, §7

[31] = test system: Ipomea; assay: Pre-emergence herbicidal activity (Example 31); settings: 10 kg/ha, after three weeks
Method: as §2, §5, §6, §7

[32] = test system: Mustard; assay: Pre-emergence herbicidal activity (Example 31); settings: 10 kg/ha, after three weeks
Method: as §2, §5, §6, §7

[33] = test system: Wild Oats; assay: Pre-emergence herbicidal activity (Example 31); settings: 10 kg/ha, after three weeks
Method: as §2, §5, §6, §7

[34] = test system: Wheat; assay: Post-emergence herbicidal activity (Example 32); parameters: key: 0-3 scale: 0 = 0-25% damage, 3 = 75-99% kill, 3+ = 100% kill; settings: 3 weeks after spraying
Method: as §2, §3, §4

Question: For COC(=O)C(C)Oc1ccc(Nc2ccc([N+](=O)[O-])cc2[N+](=O)[O-])cc1 (stereo not drawn) [Compound 15], which “damage to test plants, Rp” value [1] is on record?
Answer: 2

Question: What about the “damage to test plants, Ca” value [2] of the same compound?
Answer: 1

Question: What about the “damage to test plants, Am” value [3] of the same compound?
Answer: 2

Question: What about the “damage to test plants, Sn” value [4] of the same compound?
Answer: 0 (0 is 0 to 20% damage)

Question: And the “damage to test plants, Sb” value [5]?
Answer: 0 (0 is 0 to 20% damage)

Question: What about the “damage to test plants, Ct” value [6] of the same compound?
Answer: 2

Question: What about the “damage to test plants, Sy” value [7] of the same compound?
Answer: 2

Question: And the “damage to test plants, Ip” value [8]?
Answer: 0 (0 is 0 to 20% damage)

Question: And the “damage to test plants, Pi” value [9]?
Answer: 0 (0 is 0 to 20% damage)

Question: What about the “damage to plants, Jm” value ([10]; 1 kg/ha) of the same compound?
Answer: 3 (3 represents 75 to 99% kill)

Question: And the “damage to plants, Jm” value ([10]; 5 kg/ha)?
Answer: 3+ (3+ represents 100% kill)

Question: And the “damage to plants, Jm” value ([10]; 10 kg/ha)?
Answer: 3+ (3+ represents 100% kill)

Question: And the “damage to plants, Sf” value ([11]; 1 kg/ha)?
Answer: 0 (0 represents 0 to 25% damage)

Question: And the “damage to plants, Sf” value ([11]; 5 kg/ha)?
Answer: 0 (0 represents 0 to 25% damage)

Question: What about the “damage to plants, Sf” value ([11]; 10 kg/ha) of the same compound?
Answer: 0 (0 represents 0 to 25% damage)

Question: And the “damage to plants, Ms” value [12]?
Answer: 1

Question: And the “damage to plants, Rg” value ([13]; 1 kg/ha)?
Answer: 1

Question: What about the “damage to plants, Rg” value ([13]; 5 kg/ha) of the same compound?
Answer: 3+ (3+ represents 100% kill)

Question: What about the “damage to plants, Rg” value ([13]; 10 kg/ha) of the same compound?
Answer: 3+ (3+ represents 100% kill)

Question: What about the “damage to plants, Ot” value [14] of the same compound?
Answer: 2

Question: What about the “herbicidal damage, Mz” value [15] of the same compound?
Answer: 2

Question: And the “damage to test plants, Ww” value [16]?
Answer: 2

Question: What about the “damage to test plants, Rc” value [17] of the same compound?
Answer: 2

Question: What about the “damage to test plants, Mz” value [18] of the same compound?
Answer: 4

Question: And the “herbicidal damage, Rc” value [19]?
Answer: 0 (0 is 0 to 20% damage)

Question: And the “herbicidal damage, Rp” value [20]?
Answer: 0 (0 is 0 to 20% damage)

Question: What about the “herbicidal damage, Ww” value [21] of the same compound?
Answer: 0 (0 is 0 to 20% damage)

Question: What about the “herbicidal damage, Sn” value [22] of the same compound?
Answer: 0 (0 is 0 to 20% damage)

Question: What about the “herbicidal damage, Sb” value [23] of the same compound?
Answer: 0 (0 is 0 to 20% damage)

Question: What about the “herbicidal damage, Ct” value [24] of the same compound?
Answer: 0 (0 is 0 to 20% damage)

Question: What about the “herbicidal damage, Sy” value [25] of the same compound?
Answer: 1

Question: What about the “herbicidal damage, Ip” value [26] of the same compound?
Answer: 0 (0 is 0 to 20% damage)

Question: What about the “damage to plants, Rg” value [27] of the same compound?
Answer: 3 (3 represents 75 to 99% kill)

Question: What about the “damage to plants, Wh” value [28] of the same compound?
Answer: 0 (0 represents from 0 to 25% damage)

Question: And the “damage to plants, Jm” value [29]?
Answer: 3 (3 represents 75 to 99% kill)

Question: What about the “damage to plants, Sf” value [30] of the same compound?
Answer: 0 (0 represents from 0 to 25% damage)

Question: What about the “damage to plants, Ip” value [31] of the same compound?
Answer: 0 (0 represents from 0 to 25% damage)

Question: What about the “damage to plants, Ms” value [32] of the same compound?
Answer: 0 (0 represents from 0 to 25% damage)

Question: And the “damage to plants, Ot” value [33]?
Answer: 1

Question: And the “damage to plants, Wh” value ([34]; 1 kg/ha)?
Answer: 0 (0 represents 0 to 25% damage)

Question: What about the “damage to plants, Wh” value ([34]; 5 kg/ha) of the same compound?
Answer: 2

Question: What about the “damage to plants, Wh” value ([34]; 10 kg/ha) of the same compound?
Answer: 2
